The subject of one test is PDAC4 cultures. Kind of test: Sphere formation assay. The format is cell-based, human. The note with it: 0.1 µg/mL GEM or Cpd 1 at 1.25 or 2.5 µM. The source says: (§1) Pancreatic CSC spheres were generated as previously described in ultra-low attachment plates (Corning) using CSC media: serum-free DMEM/F12 medium (1:1; #21331-020; Gibco, Waltham, MA, USA), supplemented with Pen/Strep (1:100; #1500-063; Gibco, Waltham, MA, USA), Fungizone (1:250; #15290-018; Gibco), L-Glutamine (1:100; #25030-024; Gibco, Waltham, MA, USA), B-27 (1:50; #17504-044; Gibco, Waltham, MA, USA) and basic fibroblast growth factor (FGF-b) (1:5000; Gibco, Waltham, MA, USA). All cell culture was carried out at 37 °C in a 5% CO2 humidified incubator. To quantify spheres of > 40 μm, 1 mL of sample volume was analyzed with a CASY® Cell Counter (Roche Applied Sciences, Mannheim, Germany). The CASY® Cell Counter measuring principle is based on a capillary particle counter with pulse area analysis, that permits the determination of cell count, cell concentration, cell volume (peak), and average cell diameter, specifically diameters of 40–80 μm, 80–120 μm and >120 μm.

In the next test the test system is PDAC2 cultures. Kind of test: Sphere formation assay. The format is cell-based, human. As to conditions: 0.1 µg/mL GEM or Cpd 1 at 1.25 or 2.5 µM.
From the text: as §1

A further test deals with T1, MAP3K1 (Homo sapiens, UniProt Q13233).
T1 construct: purchased DiscoveRx KINOMEscan
Kind of test: KINOMEscan. The format is binding. As to conditions: read-out: % Ctrl.

A further test concerns the target T2, PIK3CA(E545A) (Homo sapiens, UniProt P42336, E545A).
T2 construct: purchased DiscoveRx KINOMEscan
Description: KINOMEscan. The format is binding. The note with it: read-out: % Ctrl.

A further test concerns the target T3, PDPK1 (Homo sapiens, UniProt O15530).
T3 construct: purchased DiscoveRx KINOMEscan
Description: KINOMEscan. The note with it: read-out: % Ctrl. The format is binding.

The target in another test is T4, CDK5 (Homo sapiens, UniProt Q00535).
T4 construct: purchased DiscoveRx KINOMEscan
Kind of test: KINOMEscan. The note with it: read-out: % Ctrl. The format is binding.

The next test deals with T5, CIT (Homo sapiens, UniProt O14578).
T5 construct: purchased DiscoveRx KINOMEscan
Kind of test: KINOMEscan. The format is binding. The note with it: read-out: % Ctrl.

Another test concerns the target T6, MET (Homo sapiens, UniProt P08581).
T6 construct: purchased DiscoveRx KINOMEscan
Kind of test: KINOMEscan. The test is classed as binding. As to conditions: read-out: % Ctrl.

The target of the next test is T7, ERBB4 (Homo sapiens, UniProt Q15303).
T7 construct: purchased DiscoveRx KINOMEscan
Kind of test: KINOMEscan. The format is binding. As to conditions: read-out: % Ctrl.

Another test has as its target T8, PAK2 (Homo sapiens, UniProt Q13177).
T8 construct: purchased DiscoveRx KINOMEscan
Kind of test: KINOMEscan. The test is classed as binding. As to conditions: read-out: % Ctrl.

The target of another test is T9, SGK2 (Homo sapiens, UniProt Q9HBY8).
T9 construct: purchased DiscoveRx KINOMEscan
Description: KINOMEscan. The format is binding. As to conditions: read-out: % Ctrl.

Another test has as its target T10, GCN2(KD2,S808G) (Homo sapiens, UniProt Q9P2K8, S808G).
T10 construct: purchased DiscoveRx KINOMEscan
Kind of test: KINOMEscan. The note with it: read-out: % Ctrl. The format is binding.

A further test addresses T11, CHEK1 (Homo sapiens, UniProt O14757).
T11 construct: purchased DiscoveRx KINOMEscan
Kind of test: KINOMEscan. The format is binding. As to conditions: read-out: % Ctrl.

For a further test, the target named is T12, CLK2 (Homo sapiens, UniProt P49760).
T12 construct: purchased DiscoveRx KINOMEscan
Description: KINOMEscan. The test is classed as binding. As to conditions: read-out: % Ctrl.

The next test has as its target T13, NEK11 (Homo sapiens, UniProt Q8NG66).
T13 construct: purchased DiscoveRx KINOMEscan
Description: KINOMEscan. The test is classed as binding. As to conditions: read-out: % Ctrl.

A further test has as its target T14, HIPK4 (Homo sapiens, UniProt Q8NE63).
T14 construct: purchased DiscoveRx KINOMEscan
Description: KINOMEscan. The test is classed as binding. The note with it: read-out: % Ctrl.

In a further test the target is PIM1 (Homo sapiens, UniProt P11309). Kind of test: KINOMEscan. The format is binding. Details: purchased DiscoveRx KINOMEscan. The note with it: read-out: % Ctrl.
For a further test, the target named is T15, IKK-beta (Homo sapiens, UniProt O14920).
T15 construct: purchased DiscoveRx KINOMEscan
T15 sequence (O14920 whole entry): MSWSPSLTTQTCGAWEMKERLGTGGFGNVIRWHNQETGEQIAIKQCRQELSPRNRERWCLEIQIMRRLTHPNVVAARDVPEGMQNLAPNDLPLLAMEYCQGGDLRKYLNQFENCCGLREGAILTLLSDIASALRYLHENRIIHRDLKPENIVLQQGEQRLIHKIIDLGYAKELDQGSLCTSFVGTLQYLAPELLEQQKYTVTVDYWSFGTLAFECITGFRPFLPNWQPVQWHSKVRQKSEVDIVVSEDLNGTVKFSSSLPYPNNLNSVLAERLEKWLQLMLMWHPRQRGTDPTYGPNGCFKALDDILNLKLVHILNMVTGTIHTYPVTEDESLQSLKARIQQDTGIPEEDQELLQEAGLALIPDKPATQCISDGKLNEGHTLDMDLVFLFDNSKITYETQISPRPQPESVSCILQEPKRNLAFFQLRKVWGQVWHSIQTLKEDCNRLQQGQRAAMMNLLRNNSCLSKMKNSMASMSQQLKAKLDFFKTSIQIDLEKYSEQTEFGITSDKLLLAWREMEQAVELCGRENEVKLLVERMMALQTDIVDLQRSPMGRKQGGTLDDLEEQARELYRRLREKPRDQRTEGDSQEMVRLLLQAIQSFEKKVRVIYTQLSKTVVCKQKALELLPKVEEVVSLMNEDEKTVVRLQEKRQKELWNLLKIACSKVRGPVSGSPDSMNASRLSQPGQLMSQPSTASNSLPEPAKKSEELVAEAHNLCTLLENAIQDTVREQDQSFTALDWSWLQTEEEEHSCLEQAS
Description: KINOMEscan. The test is classed as binding. As to conditions: read-out: % Ctrl.

Another test concerns the target T16, p38-delta (Homo sapiens, UniProt O15264).
T16 construct: purchased DiscoveRx KINOMEscan
Kind of test: KINOMEscan. The note with it: read-out: % Ctrl. The format is binding.

The target of the next test is T17, MAST1 (Homo sapiens, UniProt Q9Y2H9).
T17 construct: purchased DiscoveRx KINOMEscan
Kind of test: KINOMEscan. The format is binding. As to conditions: read-out: % Ctrl.

For a further test, the target named is T18, FRK (Homo sapiens, UniProt P42685).
T18 construct: purchased DiscoveRx KINOMEscan
Kind of test: KINOMEscan. The note with it: read-out: % Ctrl. The format is binding.

The next test deals with T19, FLT3-autoi. (Homo sapiens, UniProt P36888).
T19 construct: purchased DiscoveRx KINOMEscan
T19 sequence (P36888 27-993): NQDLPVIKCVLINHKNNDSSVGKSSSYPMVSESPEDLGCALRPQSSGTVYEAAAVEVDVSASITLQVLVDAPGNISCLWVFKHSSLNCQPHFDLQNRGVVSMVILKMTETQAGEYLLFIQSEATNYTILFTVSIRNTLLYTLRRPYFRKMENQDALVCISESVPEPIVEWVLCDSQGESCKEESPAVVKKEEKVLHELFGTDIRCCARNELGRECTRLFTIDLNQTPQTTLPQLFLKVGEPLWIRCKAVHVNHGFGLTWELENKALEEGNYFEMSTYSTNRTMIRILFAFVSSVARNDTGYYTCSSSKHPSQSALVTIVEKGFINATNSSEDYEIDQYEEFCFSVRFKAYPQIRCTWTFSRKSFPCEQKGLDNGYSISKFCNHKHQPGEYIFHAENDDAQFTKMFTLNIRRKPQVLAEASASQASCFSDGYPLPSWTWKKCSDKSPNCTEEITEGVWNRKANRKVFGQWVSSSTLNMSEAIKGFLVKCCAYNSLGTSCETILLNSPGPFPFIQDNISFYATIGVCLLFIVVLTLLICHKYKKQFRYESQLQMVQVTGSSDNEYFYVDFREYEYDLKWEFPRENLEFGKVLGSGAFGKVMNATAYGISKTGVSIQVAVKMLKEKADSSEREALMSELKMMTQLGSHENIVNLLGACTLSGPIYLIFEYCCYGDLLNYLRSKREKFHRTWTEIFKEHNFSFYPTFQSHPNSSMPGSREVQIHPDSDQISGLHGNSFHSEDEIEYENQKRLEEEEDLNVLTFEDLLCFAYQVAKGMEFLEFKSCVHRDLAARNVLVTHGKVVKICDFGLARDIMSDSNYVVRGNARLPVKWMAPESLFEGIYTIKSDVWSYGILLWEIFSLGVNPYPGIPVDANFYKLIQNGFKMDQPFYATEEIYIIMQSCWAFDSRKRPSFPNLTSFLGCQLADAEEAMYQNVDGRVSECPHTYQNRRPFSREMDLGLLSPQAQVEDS
Description: KINOMEscan. The test is classed as binding. The note with it: read-out: % Ctrl.

The target of a further test is T20, MAK (Homo sapiens, UniProt P20794).
T20 construct: purchased DiscoveRx KINOMEscan
Description: KINOMEscan. The note with it: read-out: % Ctrl. The test is classed as binding.

A further test has as its target T21, ASK1 (Homo sapiens, UniProt Q99683).
T21 construct: purchased DiscoveRx KINOMEscan
Kind of test: KINOMEscan. The note with it: read-out: % Ctrl. The test is classed as binding.

Another test deals with T22, RIOK1 (Homo sapiens, UniProt Q9BRS2).
T22 construct: purchased DiscoveRx KINOMEscan
T22 sequence (Q9BRS2 whole entry): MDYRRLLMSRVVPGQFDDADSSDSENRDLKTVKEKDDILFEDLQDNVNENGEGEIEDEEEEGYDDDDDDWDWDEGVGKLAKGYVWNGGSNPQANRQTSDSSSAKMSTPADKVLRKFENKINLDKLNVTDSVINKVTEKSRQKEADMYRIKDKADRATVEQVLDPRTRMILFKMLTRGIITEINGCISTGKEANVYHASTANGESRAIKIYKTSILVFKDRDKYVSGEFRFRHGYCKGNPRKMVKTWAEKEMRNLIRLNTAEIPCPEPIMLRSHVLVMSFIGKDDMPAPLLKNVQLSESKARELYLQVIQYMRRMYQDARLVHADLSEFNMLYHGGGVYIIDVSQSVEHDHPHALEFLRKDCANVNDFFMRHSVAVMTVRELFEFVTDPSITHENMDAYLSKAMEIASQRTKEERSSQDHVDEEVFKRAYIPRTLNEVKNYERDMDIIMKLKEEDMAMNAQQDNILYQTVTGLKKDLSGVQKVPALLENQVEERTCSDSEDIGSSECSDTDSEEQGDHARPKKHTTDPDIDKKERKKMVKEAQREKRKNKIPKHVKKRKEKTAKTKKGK
Description: KINOMEscan. The format is binding. The note with it: read-out: % Ctrl.

In another test the target is T23, MYLK2 (Homo sapiens, UniProt Q9H1R3).
T23 construct: purchased DiscoveRx KINOMEscan
Description: KINOMEscan. The format is binding. The note with it: read-out: % Ctrl.

In the next test the target is T24, JNK1 (Homo sapiens, UniProt P45983).
T24 construct: purchased DiscoveRx KINOMEscan
Kind of test: KINOMEscan. As to conditions: read-out: % Ctrl. The test is classed as binding.

In the next test the target is T25, EPHA5 (Homo sapiens, UniProt P54756).
T25 construct: purchased DiscoveRx KINOMEscan
T25 sequence (P54756 25-1037): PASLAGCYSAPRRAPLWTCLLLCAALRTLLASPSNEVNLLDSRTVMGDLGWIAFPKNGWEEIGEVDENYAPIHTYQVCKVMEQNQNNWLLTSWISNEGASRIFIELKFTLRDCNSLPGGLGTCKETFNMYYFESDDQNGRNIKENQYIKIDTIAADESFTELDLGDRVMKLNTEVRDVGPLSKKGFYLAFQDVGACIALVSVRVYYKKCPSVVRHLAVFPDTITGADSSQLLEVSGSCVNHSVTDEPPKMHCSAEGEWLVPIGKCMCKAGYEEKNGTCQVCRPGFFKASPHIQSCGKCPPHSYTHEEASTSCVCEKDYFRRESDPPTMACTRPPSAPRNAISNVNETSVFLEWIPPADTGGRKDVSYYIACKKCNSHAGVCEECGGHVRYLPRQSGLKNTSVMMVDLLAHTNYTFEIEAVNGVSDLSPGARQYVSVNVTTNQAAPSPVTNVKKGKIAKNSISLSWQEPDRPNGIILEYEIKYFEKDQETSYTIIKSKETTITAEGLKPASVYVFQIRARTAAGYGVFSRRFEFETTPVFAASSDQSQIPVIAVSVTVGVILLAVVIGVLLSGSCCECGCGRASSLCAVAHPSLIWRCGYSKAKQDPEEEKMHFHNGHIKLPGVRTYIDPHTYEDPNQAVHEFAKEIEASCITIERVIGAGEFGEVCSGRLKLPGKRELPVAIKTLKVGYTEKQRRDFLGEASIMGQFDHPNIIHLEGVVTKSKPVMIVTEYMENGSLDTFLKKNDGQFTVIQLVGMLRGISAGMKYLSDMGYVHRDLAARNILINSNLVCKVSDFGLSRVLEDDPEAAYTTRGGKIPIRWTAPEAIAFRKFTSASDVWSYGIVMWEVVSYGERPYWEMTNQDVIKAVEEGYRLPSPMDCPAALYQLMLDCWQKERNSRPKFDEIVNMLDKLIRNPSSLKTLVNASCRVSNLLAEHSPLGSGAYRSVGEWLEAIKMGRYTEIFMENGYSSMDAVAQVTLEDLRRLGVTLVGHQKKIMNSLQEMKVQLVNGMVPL
Kind of test: KINOMEscan. As to conditions: read-out: % Ctrl. The test is classed as binding.

Another test has as its target T26, GRK7 (Homo sapiens, UniProt Q8WTQ7).
T26 construct: purchased DiscoveRx KINOMEscan
Kind of test: KINOMEscan. The test is classed as binding. As to conditions: read-out: % Ctrl.

The next test has as its target T27, BIKE (Homo sapiens, UniProt Q9NSY1).
T27 construct: purchased DiscoveRx KINOMEscan
Kind of test: KINOMEscan. The note with it: read-out: % Ctrl. The test is classed as binding.

For the next test, the target named is T28, TYRO3 (Homo sapiens, UniProt Q06418).
T28 construct: purchased DiscoveRx KINOMEscan
Kind of test: KINOMEscan. The format is binding. As to conditions: read-out: % Ctrl.

The target of the next test is T29, LCK (Homo sapiens, UniProt P06239).
T29 construct: purchased DiscoveRx KINOMEscan
Kind of test: KINOMEscan. As to conditions: read-out: % Ctrl. The format is binding.

A further test deals with T30, DCAMKL1 (Homo sapiens, UniProt O15075).
T30 construct: purchased DiscoveRx KINOMEscan
Kind of test: KINOMEscan. The format is binding. As to conditions: read-out: % Ctrl.

The target of a further test is T31, MAP4K4 (Homo sapiens, UniProt O95819).
T31 construct: purchased DiscoveRx KINOMEscan
Kind of test: KINOMEscan. The format is binding. As to conditions: read-out: % Ctrl.

A further test has as its target T32, NEK10 (Homo sapiens, UniProt Q6ZWH5).
T32 construct: purchased DiscoveRx KINOMEscan
Kind of test: KINOMEscan. The note with it: read-out: % Ctrl. The format is binding.

Another test concerns the target T33, ERK3 (Homo sapiens, UniProt Q16659).
T33 construct: purchased DiscoveRx KINOMEscan
Kind of test: KINOMEscan. The format is binding. The note with it: read-out: % Ctrl.

For another test, the target named is T34, AKT3 (Homo sapiens, UniProt Q9Y243).
T34 construct: purchased DiscoveRx KINOMEscan
Kind of test: KINOMEscan. The note with it: read-out: % Ctrl. The test is classed as binding.

For another test, the target named is T35, MKNK1 (Homo sapiens, UniProt Q9BUB5).
T35 construct: purchased DiscoveRx KINOMEscan
Kind of test: KINOMEscan. The test is classed as binding. The note with it: read-out: % Ctrl.

The text below walks through data of publication PMC7407272, “Induction of Lysosome Membrane Permeabilization as a Therapeutic Strategy to Target Pancreatic Cancer Stem Cells” (Cancers, 2020).

T11 sequence (O14757 whole entry): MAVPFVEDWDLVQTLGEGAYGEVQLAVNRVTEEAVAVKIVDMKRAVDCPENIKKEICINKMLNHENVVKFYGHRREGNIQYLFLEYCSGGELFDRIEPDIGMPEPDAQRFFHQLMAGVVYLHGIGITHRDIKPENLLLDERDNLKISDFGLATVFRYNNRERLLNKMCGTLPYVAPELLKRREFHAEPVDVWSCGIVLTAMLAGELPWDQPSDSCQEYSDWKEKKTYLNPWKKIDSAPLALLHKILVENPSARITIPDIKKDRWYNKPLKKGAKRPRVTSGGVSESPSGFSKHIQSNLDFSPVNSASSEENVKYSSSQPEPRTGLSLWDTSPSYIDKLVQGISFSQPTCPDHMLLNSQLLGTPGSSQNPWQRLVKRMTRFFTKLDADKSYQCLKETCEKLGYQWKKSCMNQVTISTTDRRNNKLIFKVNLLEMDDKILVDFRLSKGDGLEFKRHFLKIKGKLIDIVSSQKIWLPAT
T2 sequence (P42336 whole entry E545A): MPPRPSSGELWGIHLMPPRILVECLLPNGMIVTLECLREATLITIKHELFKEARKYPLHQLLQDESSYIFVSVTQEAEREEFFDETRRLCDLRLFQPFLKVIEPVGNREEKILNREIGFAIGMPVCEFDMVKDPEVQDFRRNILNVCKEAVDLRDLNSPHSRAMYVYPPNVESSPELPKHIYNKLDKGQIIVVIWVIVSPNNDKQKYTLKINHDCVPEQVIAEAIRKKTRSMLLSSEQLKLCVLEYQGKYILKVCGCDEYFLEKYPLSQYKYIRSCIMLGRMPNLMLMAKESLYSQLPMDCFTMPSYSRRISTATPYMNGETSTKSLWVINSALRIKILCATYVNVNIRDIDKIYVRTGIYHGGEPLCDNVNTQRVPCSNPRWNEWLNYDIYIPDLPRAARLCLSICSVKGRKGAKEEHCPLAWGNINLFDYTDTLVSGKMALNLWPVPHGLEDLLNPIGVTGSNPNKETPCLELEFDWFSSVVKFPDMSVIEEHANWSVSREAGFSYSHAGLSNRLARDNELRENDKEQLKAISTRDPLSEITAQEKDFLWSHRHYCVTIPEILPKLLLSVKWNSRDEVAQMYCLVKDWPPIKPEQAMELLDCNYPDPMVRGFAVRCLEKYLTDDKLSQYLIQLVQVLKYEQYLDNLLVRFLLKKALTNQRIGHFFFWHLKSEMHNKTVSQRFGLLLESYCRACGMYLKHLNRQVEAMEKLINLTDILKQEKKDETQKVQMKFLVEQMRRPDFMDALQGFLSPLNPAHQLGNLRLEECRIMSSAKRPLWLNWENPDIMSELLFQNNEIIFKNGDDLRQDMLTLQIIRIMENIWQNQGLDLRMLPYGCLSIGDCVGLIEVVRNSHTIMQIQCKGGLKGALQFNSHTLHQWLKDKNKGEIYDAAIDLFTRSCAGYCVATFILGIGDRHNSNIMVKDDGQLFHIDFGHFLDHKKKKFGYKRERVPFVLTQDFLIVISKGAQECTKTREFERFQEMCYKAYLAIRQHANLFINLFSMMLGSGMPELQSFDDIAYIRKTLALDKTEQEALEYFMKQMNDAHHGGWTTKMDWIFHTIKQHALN

As to `COc1nc2ccc(NCC3CCN(C)CC3)nn2c1C(=O)Nc1cccc(OC(F)(F)F)c1` [Cpd 1], the sphere-forming capacity result in the test with PDAC4 cultures and with PDAC2 cultures was “decreased sphere forming capacity” each time.
For `CN1CCC(CNc2ccc3ncc(C(=O)Nc4cccc(OC(F)(F)F)c4)n3n2)CC1` [Cpd 2], the remaining binding at 1 µM on MAP3K1 came out at 100%; at PIK3CA(E545A) it was 100%; at PDPK1 it was 100%; at CDK5, 100%; on CIT, 60%; on MET, 100%. In addition, the remaining binding at 1 µM worked out at 100% at ERBB4; 94% on PAK2; 100% on SGK2; 73% on GCN2(KD2,S808G); 86% at CHEK1; 81% at CLK2. The remaining binding at 1 µM stood at 79% on NEK11; 88% at HIPK4; 5% at PIM1; 100% at IKK-beta; 100% at p38-delta; 59% on MAST1. Moreover, the remaining binding at 1 µM worked out at 100% at FRK; 82% on FLT3-autoi.; 94% on MAK; 100% on ASK1; 76% at RIOK1; 97% at MYLK2. The remaining binding at 1 µM turned out to be 92% at JNK1; 100% on EPHA5; 41% at GRK7; 83% at BIKE; 89% on TYRO3; 77% on LCK. In addition, the remaining binding at 1 µM at DCAMKL1 turned out to be 85%; on MAP4K4, 89%; on NEK10 it was 85%; at ERK3, 100%; at AKT3, 100%; at MKNK1 it was 86%.
